“Also recorded” adds a separate entry of the source.
Assays:
mice [1] = assay: Quantitative EEG, cortical oscillation power; assay type: in vivo; details: for cortical gamma power: acute; for cortical gamma power / cortical alpha, beta, delta and theta oscillations: after i.p. 10 mg/kg
Protocol: EEG experiments were performed according to Raver et al., (Neuropsychopharmacology, 38, 2338-2347 (2013)) with minor modifications. Mice were anesthetized with isoflurane and kept under anesthesia throughout the surgery. An F20-EET radio-telemetric transmitter (Data Sciences International, Minneapolis, Minn.) was implanted subcutaneously and its leads implanted over the dura above the frontal cortex (1.7 mm anterior to bregma) and the cerebellum (6.4 mm posterior to bregma). Animals recovered from surgery for 7 days before recordings.
Mice were singly housed and acclimated to the behavioral room for 24 hours prior to EEG recordings. EEGs were recorded using the Dataquest A.R.T. acquisition system (Data Sciences International) with frontal EEG recordings referenced to the cerebellum. Baseline EEG (10 min) recordings were followed by an i.p. injection of saline, ketamine (10 mg/kg) or (2R,6R)-HNK (10 mg/kg) and 40 min of post-injection recordings.
ECoGs were analyzed using custom-written MATLAB scripts (Version 2012a, Mathworks, Mass.) and the mtspecgramc routine in the Chronux Toolbox (http://chronux.org; Mitra and Bokil, 2008). Oscillation power in each bandwidth (δ=1-3 Hz; θ=4-7 Hz; α=8-12 Hz; β=13-29 Hz; γ=30-80 Hz) was computed in 10 min bins from spectrograms for each animal.

male CD-1 mice = assay: Forced-swim test (FST); assay type: in vivo; details: for antidepressant effect in the FST (immobility time): i.p.
Text: Male CD-1 mice (8-10 weeks old, Charles River Laboratories, Mass., USA) were housed in groups of four-five per cage with a constant 12-hour light/dark cycle (lights on/off at 07:00/19:00). Food and water were available ad libitum. Mice acclimatized to the new environment for seven days prior to the start of the experiments. For the whole-cell NMDA current electrophysiological recordings, male Sprague-Dawley rats (housed three per cage; Charles River, Wilmington, Mass.) were used. EPSC recording were done from rats at postnatal day 24-25. All experimental procedures were approved by the University of Maryland, Baltimore Animal Care and Use Committee and were conducted in full accordance with the National Institutes of Health Guide for the Care and Use of Laboratory Animals.
Mice were tested in the FST 1 hour and/or 24 hours post-injection. During the FST, mice were subjected to a 6-min swim session in clear Plexiglass cylinders (30 cm height×20 cm diameter) filled with 15 cm of water (23±1° C.). The FST was performed in normal light conditions (800 Lux). Sessions were recorded using a digital video-camera. Immobility time, defined as passive floating with no additional activity other than that necessary to keep the animal's head above water, was scored for the last 4 min of the 6-min test by a trained observer blind to the treatment.
All drugs were dissolved in 0.9% saline, and administered intraperitoneally (i.p.) in a volume of 7.5 ml/kg of body mass. Corticosterone (4-pregnen-11β, 21-diol-3, 20-dione 21-hemisuccinate; Steraloids, Newport, R.I., USA) was dissolved in tap water. For the electrophysiology recordings, test drugs were diluted in artificial cerebrospinal fluid (AC SF).

GluR1 and GluR2 = assay: Western blot of synaptoneurosomes, GluR1 and GluR2 levels; assay type: in vivo, mice
Protocol: To purify synaptoneurosomes, mouse prefrontal cortex or hippocampus were dissected and homogenized in Syn-PER Reagent (ThermoFisher Scientific, Waltham, Mass., USA; Cat #87793) with 1× protease and phosphatase inhibitor cocktail (ThermoFisher Scientific, Waltham, Mass., USA; Cat #78440). The homogenate was centrifuged for 10 min at 1,200×g at 4° C. The supernatant was centrifuged at 15,000×g for 20 min. After centrifugation, the supernatant the pellet (synaptosomal fraction) was re-suspended and sonicated in N-PER Neuronal Protein Extraction Reagent (ThermoFisher Scientific, Waltham, Mass., USA; Cat #87792). For total homogenous tissue lysates, mouse prefrontal cortex or hippocampus were homogenized and sonicated in N-PER Neuronal Protein Extraction Reagent with 1× protease & phosphatase inhibitor cocktail) Protein concentration was determined via the BCA protein assay kit (ThermoFisher Scientific, Waltham, Mass., USA; Cat #23227).
For western blotting, equal amount of proteins (10-40 μg as optimal for each antibody) for each sample were loaded into NuPage 4-12% Bis-Tris gel for electrophoresis. Nitrocellulose membranes with transferred proteins were blocked with 5% milk in TBST (TBS+0.1% Tween-20) for 1 hour and kept with primary antibodies overnight at 4° C. The following primary antibodies were used: phospho-eEF2 (Cell Signaling Technology, Danvers, Mass., USA; Cat #2331), total eEF2 (Cell Signaling Technology, Danvers, Mass., USA; Cat #2332), phospho-mTOR (Cell Signaling Technology, Danvers, Mass., USA; Cat #2971), total mTOR (Cell Signaling Technology, Danvers, Mass., USA; Cat #2983), GluR1 (Cell Signaling Technology, Danvers, Mass., USA; […]), GluR2 (Cell Signaling Technology, Danvers, Mass., USA; Cat #13607), BDNF (Santa Cruz Biotechnology, Dallas, Tex., USA; Cat # sc-546), and GAPDH (Abcam, Cambridge, Mass., USA; Cat # ab8245). The next day, blots were washed three times in PBST and incubated with horseradish peroxidase conjugated anti-mouse or anti-rabbit secondary antibody (1:5000 to 1:10000) for 1 hour. After final three washes with TBST, bands were detected using enhanced chemiluminescence (ECL) with the Syngene Imaging System (G:Box ChemiXX9). After imaging, the blots then were incubated in the stripping buffer (ThermoFisher Scientific, Waltham, Mass., USA; Cat #46430) for 10-15 min at room temperature followed by three time washes with TBST. The stripped blots were washed in blocking solution for 1 hour and incubated with the primary antibody directed against total levels of the respective protein or GAPDH for loading control. Densitometric analysis of phospho- and total immunoreactive bands for each protein was conducted using Syngene's GenTools software Immunoreactivity was normalized to the saline treated control group for each protein.

mice [2] = assay: Open field test (locomotor activity); assay type: in vivo; details: 1 hour after i.p. drug
Protocol: Mice were placed into individual open-field arenas (50 cm length×50 cm width×38 cm height; San Diego Instruments, San Diego, Calif., USA) for a 60-min habituation period. Mice were then injected with the respective drug and assessed for locomotor activity for another 60 min. Distance travelled was analyzed using TopScan v2.0 (CleverSys, Inc, Reston, Va., USA).

[3] = 1- and 24-hours post-injection, times not separated
[4] = 24 hours post-injection (sustained)

Structure (SMILES) | cortical gamma power (mice [1]; 10 mg/kg) | cortical alpha, beta, delta and theta oscillations (mice [1]; 10 mg/kg) | antidepressant effect in the FST (immobility time) (male CD-1 mice; [3]) | antidepressant effect in the FST (immobility time) (male CD-1 mice; [4]) | GluR1 and GluR2 levels in hippocampal synaptoneurosomes (GluR1 and GluR2; 1 hour post-treatment) | GluR1 and GluR2 levels in hippocampal synaptoneurosomes (GluR1 and GluR2; 24 hours post-treatment) | GluR1/GluR2 levels in prefrontal cortex synaptoneurosomes (GluR1 and GluR2) | locomotor activity in the open-field test (mice [2]) | cortical alpha, beta, delta and theta oscillations (mice [1]) | locomotor home-cage activity during EEG recording (mice [1]; mouse, in vivo) | antidepressant effect in the FST (immobility time) (male CD-1 mice; 1 hour post-injection (acute)) | antidepressant potency in the FST, female versus male mice (male CD-1 mice; female mice compared to males) | GluR1/GluR2 levels in prefrontal cortex synaptoneurosomes (GluR1 and GluR2; listed as (R,S)-KET) | locomotor activity in the open-field test (mice [2]; listed as (R,S)-KET) | locomotor activity in the open-field test (mice [2]; listed as (R,S)-ketamine)
N[C@@]1(c2ccccc2Cl)CCC[C@@H](O)C1=O [(2R,6R)-HNK, (2R,6R)-2-amino-2-(2-chlorophenyl)-6-hydroxycyclohexanone] | acutely increases cortical gamma power | without altering alpha, beta, delta or theta oscillations; also recorded: Neither (R,S)-KET, nor (2R,6R)-HNK altered | greater potency and longer-lasting antidepressant-like effects; also recorded: dose-dependent antidepressant-like effects; also recorded: dose-dependent antidepressant action | more potent antidepressant effects | neither ketamine nor (2R,6R)-HNK administration altered | both increased GluR1 and GluR2 levels | did not alter synaptoneurosome levels of GluR1/GluR2 | did not induce any significant change in locomotion; also recorded: did not induce any stimulant-like hyperlocomotion |  |  |  |  |  |  | 
CNC1(c2ccccc2Cl)CCCCC1=O (racemic) [ketamine, (R,S)-ketamine, reference compound] | acutely increases cortical gamma power |  | acute and long-lasting dose-dependent antidepressant effects | showed sustained effects following 24 hours | neither ketamine nor (2R,6R)-HNK administration altered | both increased GluR1 and GluR2 levels |  | not associated with sex differences in ketamine-induced hyperlocomotion | Neither (R,S)-KET, nor (2R,6R)-HNK altered | increased locomotor home-cage activity | antidepressant responses of both ketamine and MK-801 observed acutely | greater antidepressant potency of ketamine in female mice | did not alter synaptoneurosome levels of GluR1/GluR2 | induced hyper-locomotor responses equally in both male and female mice | equally potent in inducing a hyper-locomotor response

— patent publication US20190083420A1, “METHODS OF USING (2R, 6R)-HYDROXYN[…] (2S, 6S)-HYDROXYN[…] THE TREATMENT OF DEPRESSION, ANXIETY, ANHEDONIA, FATIGUE, SUICIDAL IDEATION, AND POST TRAUMATIC STRESS DISORDERS” (The Uinited States of America, as represented by the …, priority 2016, published 2019)
